Activity calls are given as the source filed them. The calls are words filed in the database; no cut-off is given here.
Legend:
Rattus norvegicus [1] = organism: Rattus norvegicus; assay: Effective dose for drug discrimination assay in rats using DOI as training drug.; format: functional
Rattus norvegicus [2] = organism: Rattus norvegicus; assay: Effective dose for drug discrimination assay in rats using (+)-amphetamine as training drug; format: functional
[3] = target: T1, Norepinephrine transporter (Rattus norvegicus, UniProt Q9WTR4); assay: (§1) Compound was tested for the ability to inhibit [3H]norepinephrine binding to Norepinephrine transporter in rat synaptosomes; format: subcellular, Brain
T1 sequence (Q9WTR4 whole entry): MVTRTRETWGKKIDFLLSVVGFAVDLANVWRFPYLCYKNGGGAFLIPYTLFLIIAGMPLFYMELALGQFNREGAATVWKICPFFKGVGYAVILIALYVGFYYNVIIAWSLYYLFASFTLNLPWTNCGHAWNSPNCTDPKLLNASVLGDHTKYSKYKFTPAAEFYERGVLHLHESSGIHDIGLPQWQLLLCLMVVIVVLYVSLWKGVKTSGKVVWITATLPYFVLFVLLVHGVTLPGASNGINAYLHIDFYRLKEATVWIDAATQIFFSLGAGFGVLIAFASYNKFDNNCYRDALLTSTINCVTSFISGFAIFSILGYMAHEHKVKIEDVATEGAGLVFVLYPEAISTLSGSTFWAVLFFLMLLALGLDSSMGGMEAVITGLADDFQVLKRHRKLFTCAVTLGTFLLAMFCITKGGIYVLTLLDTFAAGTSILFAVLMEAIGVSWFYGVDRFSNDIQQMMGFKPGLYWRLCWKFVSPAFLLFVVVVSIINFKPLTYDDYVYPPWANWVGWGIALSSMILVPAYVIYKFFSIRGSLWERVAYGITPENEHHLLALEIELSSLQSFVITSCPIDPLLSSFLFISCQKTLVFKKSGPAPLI

Rattus norvegicus [4] = organism: Rattus norvegicus; assay: Compound was tested for its ability to inhibit [3H]dopamine uptake in rat synaptosomes; format: functional; conditions: Brain
Rattus norvegicus [5] = organism: Rattus norvegicus; assay: Effective dose for drug discrimination assay in rats using (+)-Amphitamine as training drug; NS = No substitution; format: functional, organism-based
Rattus norvegicus [6] = organism: Rattus norvegicus; assay: Effective dose for drug discrimination assay in rats using (+)-MBDB as training drug; format: functional
Rattus norvegicus [7] = organism: Rattus norvegicus; assay: Effective dose for drug discrimination assay in rats using DOIas training drug.; format: functional
Rattus norvegicus [8] = organism: Rattus norvegicus; assay: Effective dose for drug discrimination assay in rats using LSD as training drug.; format: functional
[9] = selectivity is the ratio between IC50 values of 5-HTand DA
Rattus norvegicus [10] = organism: Rattus norvegicus; assay: Effective dose for drug discrimination assay in rats using MMAI as training drug.; format: functional
[11] = target: Sodium-dependent serotonin transporter (Rattus norvegicus, UniProt P31652); assay: Activity towards Serotonin transporter was determined by the ability to inhibit [3H]5-HT uptake in rat synaptosomes; format: subcellular, Brain
Chain of Sodium-dependent serotonin transporter (P31652 whole entry): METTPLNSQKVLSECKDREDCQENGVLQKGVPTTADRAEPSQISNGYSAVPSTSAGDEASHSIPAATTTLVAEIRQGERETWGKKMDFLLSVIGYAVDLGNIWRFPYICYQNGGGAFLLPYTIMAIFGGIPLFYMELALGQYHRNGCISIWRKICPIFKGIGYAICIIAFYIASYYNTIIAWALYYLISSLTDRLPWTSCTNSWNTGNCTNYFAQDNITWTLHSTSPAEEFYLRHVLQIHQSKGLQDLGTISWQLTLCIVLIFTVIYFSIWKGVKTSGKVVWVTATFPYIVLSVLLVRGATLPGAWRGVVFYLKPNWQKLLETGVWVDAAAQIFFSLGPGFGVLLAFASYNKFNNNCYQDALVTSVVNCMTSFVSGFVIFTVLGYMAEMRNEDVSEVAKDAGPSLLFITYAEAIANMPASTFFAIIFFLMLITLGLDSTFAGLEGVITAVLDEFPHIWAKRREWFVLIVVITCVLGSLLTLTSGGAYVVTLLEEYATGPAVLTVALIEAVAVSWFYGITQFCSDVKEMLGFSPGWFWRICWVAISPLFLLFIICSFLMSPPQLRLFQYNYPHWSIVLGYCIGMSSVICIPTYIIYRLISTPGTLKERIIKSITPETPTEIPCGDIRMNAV

Rattus norvegicus [12] = organism: Rattus norvegicus; assay: Effective dose for drug discrimination assay in rats using (+)-MBDB as training drug.; format: functional
[13] = target: T1, Norepinephrine transporter; assay: as §1; format: functional, subcellular, Brain
Rattus norvegicus [14] = organism: Rattus norvegicus; assay: Effective dose for drug discrimination assay in rats using LSD as training drug; format: functional

SMILES	IC50 [3] [nM]	IC50 (Rattus norvegicus [4]) [µM]	ED50 (Rattus norvegicus [5])	Selectivity [9]	ED50 (Rattus norvegicus [10]) [µmol/kg]	IC50 [11] [nM]	also measured
COc1cc(CC(C)N)c(OC)cc1I (stereo not drawn)	–	–	–	–	–	–	ED50 (Rattus norvegicus [1]): 0.3 µmol/kg
C[C@H](N)Cc1ccccc1 [DEXTROAMPHETAMINE]	–	–	–	–	–	–	ED50 (Rattus norvegicus [2]): 1.06 µmol/kg
Cc1cc2c(cc1CC(C)N)OCO2 (stereo not drawn)	4600	28.3	inactive	36	7.65	783	ED50 (Rattus norvegicus [6]): 17.4 µmol/kg; ED50 (Rattus norvegicus [7]): 8.72 µmol/kg; ED50 (Rattus norvegicus [8]): 17.4 µmol/kg
COc1cc2c(cc1C)CC(N)C2 (stereo not drawn)	–	–	–	–	1.83	–	–
CC(N)Cc1ccc2c(c1)CCC2 (stereo not drawn)	849	–	–	23	–	82	–
CC(N)Cc1ccc2c(c1)OCO2 (stereo not drawn) [TENAMFETAMINE]	266	0.89	inactive	2	–	478	ED50 (Rattus norvegicus [12]): 2.07 µmol/kg
Cc1c(CC(C)N)ccc2c1OCO2 (stereo not drawn)	–	12	inactive	129	1.71	93	IC50 [13]: 1940 nM; ED50 (Rattus norvegicus [12]): 1.83 µmol/kg; ED50 (Rattus norvegicus [7]): 1.7 µmol/kg; ED50 (Rattus norvegicus [8]): 4.1 µmol/kg
CC(N)Cc1ccc(I)cc1 (stereo not drawn) [p-IODOAMPHETAMINE]	993	0.589	–	7	–	82	–
Cc1cc(CC(C)N)cc2c1OCO2 (stereo not drawn)	1490	11.6	inactive	108	1.53	107	ED50 (Rattus norvegicus [12]): 2 µmol/kg; ED50 (Rattus norvegicus [7]): 2.11 µmol/kg; ED50 (Rattus norvegicus [8]): 8.72 µmol/kg
CCN(CC)C(=O)[C@@H]1C=C2c3cccc4[nH]cc(c34)C[C@H]2N(C)C1 [LYSERGIDE]	–	–	–	–	–	–	ED50 (Rattus norvegicus [14]): 0.04 µmol/kg
CSc1ccc(CC(C)N)cc1 (stereo not drawn) [4-METHYLTHIOAMPHETAMINE]	2380	3.07	–	42	–	74	–
